Legend:
POAAN [1] = test: Greenhouse trial: PE soil application vs incorporation into the soil (test methods 1, 3 and 4); type: in vivo, Poa annua; conditions: g of AS/ha: (A) 120, (B) 1200, (C) 140, (A)+(B)+(C) 120 + 1200 + 140
Protocol: (§1) In the standard design of the test, seeds of various broad-leaved weed and weed grass biotypes (origins) were sown in a 8-13 cm diameter pot filled with natural soil of a standard field soil (loamy silt; non-sterile) and covered with a covering soil layer of about 1 cm. The pots were then cultivated in a greenhouse (12-16 h of light, temperature day 20-22° C., night 15-18° C.) until the time of application. The pots were treated on a laboratory track sprayer with spray liquors comprising the compositions according to the invention, mixtures of the prior art or components used individually. Application of the active compounds or active compound combinations formulated as WG, WP, EC or otherwise was carried out at the appropriate growth stages of the plants. The application rate for the spray application was 100-600 l of water/ha. After the treatment, the plants were returned to the greenhouses.
(§2) About 3 weeks after the application, the soil action or/and foliar action was assessed visually according to a scale of 0-100% in comparison to an untreated comparative group: 0%=no noticeable effect compared to the untreated comparative group; 100%=full effect compared to the untreated comparative group.
(§3) (notes: the term “seeds” also includes vegetative propagation forms such as, for example, rhizome pieces; abbreviations used: h light=hours of illumination, g of AS/ha=gram of active substance per hectare, I/ha=liter per hectare, S=sensitive, R=resistant) • 1. Pre-emergence action against weeds: seeds of various broad-leaved weed and weed grass biotypes (origins) were sown in a 8-13 cm diameter pot filled with natural soil of a standard field soil (loamy silt; non-sterile) and covered with a covering soil layer of about 1 cm. The pots were then cultivated in a greenhouse (12-16 h of light, temperature day 20-22° C., night 15-18° C.) until the time of application. The pots were treated at the BBCH stage 00-10 of the seeds/plants on a laboratory track sprayer with spray liquors comprising the compositions according to the invention, mixtures or components used individually, as WG, WP, EC or other formulations. The application rate for the spray application was 100-600 l of water/ha. After the treatment, the plants were returned to the greenhouses and, when required, treated with fertilizer and watered. • 2. Post-emergence action against weeds: seeds of various broad-leaved weed and weed grass biotypes (origins) were sown in a 8-13 cm diameter pot filled with natural soil of a standard field soil (loamy silt; non-sterile) and covered with a covering soil layer of about 1 cm. The pots were then cultivated in a greenhouse (12-16 h of light, temperature day 20-22° C., night 15-18° C.) until the time of application. The pots were treated at various BBCH stages between 11-25 of the seeds/plants, i.e. generally between two to three weeks after the start of the cultivation, on a laboratory track sprayer with spray liquors comprising the compositions according to the invention, mixtures or components used individually, as WG, WP, EC or other formulations. The application rate for the spray application was 100-600 l of water/ha. After the treatment, the plants were returned to the greenhouses and, when required, treated with fertilizer and watered. • 3. Pre-emergence action against weeds with and without incorporation of active compound: seeds of various broad-leaved weed and weed grass biotypes (origins) were sown in a 8-13 cm diameter pot filled with natural soil of a standard field soil (loamy silt; non-sterile). […]

APESV [2] = test: Greenhouse trial: PO application (test methods 2 and 5); type: in vivo, Apera Spica-venti; conditions: g of AS/ha: (A) 120, (B) 1600, (C) 140, (A)+(B)+(C) 120 + 1600 + 140
Protocol: as §1, §2
(§4) (notes: the term “seeds” also includes vegetative propagation forms such as, for example, rhizome pieces; abbreviations used: h light=hours of illumination, g of AS/ha=gram of active substance per hectare, I/ha=liter per hectare, S=sensitive, R=resistant) • 1. Pre-emergence action against weeds: seeds of various broad-leaved weed and weed grass biotypes (origins) were sown in a 8-13 cm diameter pot filled with natural soil of a standard field soil (loamy silt; non-sterile) and covered with a covering soil layer of about 1 cm. The pots were then cultivated in a greenhouse (12-16 h of light, temperature day 20-22° C., night 15-18° C.) until the time of application. […]

POAAN [3] = test: as above; type: in vivo, Poa annua; conditions: g of AS/ha: (A) 120, (B) 1600, (C) 140, (A)+(B)+(C) 120 + 1600 + 140
Protocol: as §1, §2, §4

LOLPE [4] = test: Greenhouse trial: PE application vs application 7 days prior to sowing (test method 6); type: in vivo, Lolium perenne
Protocol: as §1, §2, §3

AVEFA [5] = test: as above; type: in vivo, Avena fatua
Protocol: as §1, §2, §3

LOLPE [6] = test: Greenhouse trial: PE application with different irrigation variants (test method 7); type: in vivo, Lolium perenne; conditions: g of AS/ha: (A) 120, (B) 1200, (C) 140, (A)+(B)+(C) 120 + 1200 + 140
Protocol: as §1, §2, §3

AVEFA [7] = test: as above; type: in vivo, Avena fatua; conditions: g of AS/ha: (A) 120, (B) 1200, (C) 140, (A)+(B)+(C) 120 + 1200 + 140
Protocol: as §1, §2, §3

MATCH [8] = test: as above; type: in vivo, Matricaria chamomilla; conditions: g of AS/ha: (A) 120, (B) 1200, (C) 140, (A)+(B)+(C) 120 + 1200 + 140
Protocol: as §1, §2, §3

LOLPE [9] = test: Greenhouse trial: different soil types (test method 8); type: in vivo, Lolium perenne; conditions: g of AS/ha: (A) 120, (B) 1200, (C) 90, (A)+(B)+(C) 120 + 1200 + 90
Protocol: as §1, §2, §3

MATCH [10] = test: as above; type: in vivo, Matricaria chamomilla; conditions: g of AS/ha: (A) 120, (B) 1200, (C) 140, (A)+(B)+(C) 120 + 1200 + 140
Protocol: as §1, §2, §3

STEME = test: Greenhouse trial: resistant biotypes following PE application (test method 9); type: in vivo, Stellaria media; conditions: g of AS/ha: (A) 90, (B) 1200, (C) 140, (A)+(B)+(C) 90 + 1200 + 140, iodosulfuron 10; for activity STEME resistant / activity STEME sensitive: PE; for activity STEME resistant: resistant biotype; for activity STEME sensitive: sensitive biotype
Protocol: as §1, §2, §3

LOLSS = test: as above; type: in vivo, Lolium species; conditions: g of AS/ha: (A) 90, (B) 1200, (C) 140, (A)+(B)+(C) 90 + 1200 + 140, iodosulfuron 10; for activity LOLSS resistant / activity LOLSS sensitive: PE; for activity LOLSS resistant: resistant biotype; for activity LOLSS sensitive: sensitive biotype
Protocol: as §1, §2, §3

MATCH [11] = test: Greenhouse trial: different sowing depths on PE application (test method 10); type: in vivo, Matricaria chamomilla; conditions: g of AS/ha: (A) 90, (B) 1200, (C) 140, (A)+(B)+(C) 90 + 1200 + 140; for activity MATCH 5 mm: sowing depth 5 mm; for activity MATCH 20 mm: sowing depth 20 mm
Protocol: as §1, §2, §3

APESV [12] = test: as above; type: in vivo, Apera Spica-venti; conditions: g of AS/ha: (A) 90, (B) 1200, (C) 140, (A)+(B)+(C) 90 + 1200 + 140; for activity APESV 5 mm: sowing depth 5 mm; for activity APESV 20 mm: sowing depth 20 mm
Protocol: as §1, §2, §3

TRZAS [13] = test: Greenhouse trial: PE soil application vs incorporation into the soil (test methods 1, 3 and 4); type: in vivo, Triticum aestivum, summer wheat; conditions: g of AS/ha: (A) 120, (B) 1200, (C) 140, (A)+(B)+(C) 120 + 1200 + 140
Protocol: as §1
as §2, with “group. […]” for “group.”

HORVS [14] = test: Greenhouse trial: PO application (test methods 2 and 5); type: in vivo, Hordeum vulgare, summer barley; conditions: g of AS/ha: (A) 120, (B) 1600, (C) 140, (A)+(B)+(C) 120 + 1600 + 140
Protocol: as §1
as §2, with “group. […]” for “group.”

HORVS [15] = test: Greenhouse trial: PE application vs application 7 days prior to sowing (test method 6); type: in vivo, Hordeum vulgare, summer barley; conditions: g of AS/ha: (A) 90, (B) 1200, (C) 140, mixture 90 + 1200 + 140
Protocol: as §1
as §2, with “group. […]” for “group.”

TRZAS [16] = test: as above; type: in vivo, Triticum aestivum, summer wheat; conditions: g of AS/ha: (A) 90, (B) 1200, (C) 140, (A)+(B)+(C) 90 + 1200 + 140
Protocol: as §1
as §2, with “group. […]” for “group.”

HORVS [17] = test: Greenhouse trial: different soil types (test method 8); type: in vivo, Hordeum vulgare, summer barley; conditions: g AS/ha: (A) 120, (B) 1200, (C) 140, (A)+(B)+(C) 120 + 1200 + 140
Protocol: as §1, §2, §4

[18] = PE application, g of AS/ha: (A) 90, (B) 1200, (C) 140, mixture 90 + 1200 + 140
[19] = application 7 days prior to sowing, g of AS/ha: (A) 90, (B) 1200, (C) 140, (A)+(B)+(C) 90 + 1200 + 140

Structure (SMILES) | activity POAAN (POAAN [1]; Incorporation) | activity POAAN (POAAN [1]; PE application) | activity APESV (APESV [2]) | activity POAAN (POAAN [3]) | activity LOLPE (LOLPE [4]; [18]) | activity LOLPE (LOLPE [4]; [19]) | activity AVEFA (AVEFA [5]; [18]) | activity AVEFA (AVEFA [5]; [19]) | activity LOLPE (LOLPE [6]; Irrigation from above) | activity LOLPE (LOLPE [6]; Irrigation from below) | activity AVEFA (AVEFA [7]; Irrigation from above) | activity AVEFA (AVEFA [7]; Irrigation from below) | activity MATCH (MATCH [8]; Irrigation from above) | activity MATCH (MATCH [8]; Irrigation from below) | activity LOLPE IU soil (LOLPE [9]) | activity LOLPE IU/EC73 soil (LOLPE [9]) | activity STEME resistant (STEME) | activity STEME sensitive (STEME) | activity LOLSS resistant (LOLSS) | activity LOLSS sensitive (LOLSS) | also measured
CC(C)N(C(=O)COc1nnc(C(F)(F)F)s1)c1ccc(F)cc1 [(A) flufenacet, N-(4-fluorophenyl)-N-(1-methylethyl)-2-[[5-(trifluoromethyl)-1,3,4-thiadiazol-2-yl]oxy]acetamide] | 90% | 70% | 60% | 60% | 90% | 80% | 80% | 70% | 80% | 78% | 85% | 50% | 49% | 35% | 89% | 0% | 0% | 0% | 10% | 85% | activity MATCH IU soil (MATCH [10]): 80%; activity MATCH IU/EC73 soil (MATCH [10]): 0%; Difference Δ^D activity resistant to activity sensitive, STEME (STEME): Δ^D ± 0%; activity MATCH 5 mm (MATCH [11]): 30%; activity MATCH 20 mm (MATCH [11]): 30%; activity APESV 5 mm (APESV [12]): 65%; activity APESV 20 mm (APESV [12]): 70%
CCCN(CCC)C(=O)SCc1ccccc1 [(B) prosulfocarb, S-(phenylmethyl) dipropylcarbamothioate] | 85% | 35% | 20% | 30% | 80% | 0% | 80% | 10% | 10% | 5% | 5% | 10% | 0% | 0% | 0% | 0% | 40% | 70% | 65% | 85% | Difference of the soil types Δ^D, LOLPE (LOLPE [9]; IU/EC73 soil vs IU soil): Δ^D + 0%; activity MATCH IU soil (MATCH [10]): 10%; activity MATCH IU/EC73 soil (MATCH [10]): 0%; activity MATCH 5 mm (MATCH [11]): 0%; activity MATCH 20 mm (MATCH [11]): 0%; activity APESV 5 mm (APESV [12]): 50%; activity APESV 20 mm (APESV [12]): 20%
CSc1nnc(C(C)(C)C)c(=O)n1N [(C) metribuzin, 4-amino-6-(1,1-dimethylethyl)-3-(methylthio)-1,2,4-triazon-5(4H)-one] | 68% | 0% | 79% | 79% | 70% | 0% | 10% | 0% | 55% | 48% | 30% | 30% | 0% | 60% | 75% | 5% | 98% | 100% | 70% | 70% | activity TRZAS (crop plant) (TRZAS [13]; Incorporation): 100%; activity TRZAS (crop plant) (TRZAS [13]; PE application): 65%; activity HORVS (crop plant) (HORVS [14]): 70%; activity HORVS (crop plant) (HORVS [15]): 50%; activity TRZAS (crop plant) (TRZAS [16]): 30%; activity MATCH IU soil (MATCH [10]): 0%; Difference of the soil types Δ^D, MATCH (MATCH [10]; IU/EC73 soil vs IU soil): Δ^D + 5%; activity MATCH IU/EC73 soil (MATCH [10]): 15%; activity HORVS IU soil (crop plant) (HORVS [17]; IU soil): 0%; Difference of the soil types, HORVS (HORVS [17]; IU/EC73 soil vs IU soil): 0%; activity HORVS IU/EC73 soil (crop plant) (HORVS [17]; IU/EC73 soil): 0%; Difference Δ^D activity resistant to activity sensitive, LOLSS (LOLSS): Δ^D ± 0%; activity MATCH 5 mm (MATCH [11]): 100%; activity MATCH 20 mm (MATCH [11]): 70%; activity APESV 5 mm (APESV [12]): 75%; activity APESV 20 mm (APESV [12]): 100%
COc1nc(C)nc(NC(=O)NS(=O)(=O)c2cc(I)ccc2C(=O)O)n1 [iodosulfuron] |  |  |  |  |  |  |  |  |  |  |  |  |  |  |  |  | 40% | 90% | 50% | 98% | 
